Reference: patent publication US20130059879A1, “Small Molecule Inhibitors of PFKFB3 and Glycolytic Flux and Their Methods of Use as Anti-Cancer Therapeutics” (UNIVERSITY OF LOUISVILLE RESEARCH FOUNDATION, INC., priority 2010, published 2013)

What was measured:
U937 = assay: Cancer cell proliferation, Alamar Blue assay, 72 hours; assay type: cell-based; details: Homo sapiens, U-937
Procedure: (§1) The ability of the compounds described herein to kill or inhibit the proliferation of cancer cells was measured using either the MTT assay, or the Alamar Blue assay, or the Cell Titer Glow® assay using 48 or 72 hours exposure. […] The procedures are briefly described below. Cells of the desired tumor cell line were plated at 2×10^5 cells/ml in 96 well plates. Twice the indicated concentrations of the compounds of the invention were added to cells the following day in an equal volume of media. 72 hours later, cells were lysed and subjected to ATP determination using the CellTiter Glo-Luminescent Cell Viability Assay kit (Promega, Madison, Wis.). Experiments were done in triplicate. When using the MTT assay or the Alamar blue assay, the experimental conditions are essentially similar; at the end of the incubation period, 20 microliters of the MTT solution is added per well and the samples are incubated for an additional four hours, rinsed, and the absorbance at 570 nm measured. […] Table 2 lists the IC50 values for the compounds of the invention in several cell lines including Jurkat, Calu-6, NCI-H82, U937, HCT-116, and MDA-MB-231 cancer cell lines.

HCT-116 = assay: as above; assay type: cell-based; details: Homo sapiens, HCT-116
Procedure: as §1

NCI-H82 = assay: as above; assay type: cell-based; details: Homo sapiens, NCI-H82, read-out: IC50 NCl-H82
Procedure: as §1

Jurkat = assay: as above; assay type: cell-based; details: Homo sapiens, Jurkat
Procedure: as §1

Calu-6 = assay: as above; assay type: cell-based; details: Homo sapiens, Calu-6
Procedure: as §1

MDA-MB-231 = assay: as above; assay type: cell-based; details: Homo sapiens
Procedure: as §1

[1] = Microsomal stability in human liver microsomes; assay type: in vitro ADME
Procedure: Microsomal stability in vitro in different biologic media (liver microsomes, S9 fraction, hepatocytes) and species is ascertained to evaluate the rate at which a compound undergoes metabolism in the experimental in vitro conditions. Results for some compounds of the invention after a 60 minutes incubation period in human liver microsomes are shown in the Table 6 below. […] Experimental conditions are briefly described here: the stability in human liver microsomes of several compounds was done over […] at 37° C. using pooled mixed gender human liver microsomes. These liver microsomes were prepared at 1.0 mg/ml of microsomal protein in a 100 mM potassium phosphate pH 7.4 buffer with 1 mM NADPH. The media was incubated at 37° C. with the compound in solution in DMSO. The concentration of the compound was followed by LC/MS-MS as a function of time. Samples were assayed at t=0, 15, 30, and 60 minutes. Testosterone was used as a positive control. The same experiment was performed with mouse, rat or dog liver microsomes instead of human liver microsomes.

[2] = Cell permeability in Caco2 monolayers; assay type: in vitro ADME; details: human, Caco-2, Caco2 cells, pH 7.4
Description: The determination of the permeability in Caco2 or MDR1-MDCK cells is widely used when screening compounds to assess cell permeability, intestinal drug transport and predict absorption rates and to ascertain if a compound might be a Pgp substrate and have cross the blood brain barrier. […] Comparison of the apical to basal (A-B) and basal to apical (B-A) values show if a compound is actively effluxed out the cells and if it is a Pgp substrate. […] Briefly, cell permeability and transport mechanisms in Caco-2 and MDR1-MDCK monolayers experiments were performed in triplicate in the apical-to-basolateral and basolateral-to-apical direction using Transwell wells containing either Caco-2 or MDR1-MDCK monolayers. A modified Hanks buffer pH 7.4 was used in both reservoir and receiver wells with the addition of 1% BSA in the receiver side. Confluent monolayers were used and their integrity was verified using reference compounds (Atenolol as a low permeability reference compound and Propanolol as a high permeability reference compound). A sample in the basolateral and apical sides was taken after 2 hours and the concentration measured by LC/MS-MS.

PFKFB3 = target: T1, PFKFB3 (Homo sapiens, UniProt Q16875); assay: Inhibition of recombinant PFKFB3 kinase activity (ADP Glow assay); assay type: biochemical; details: 250 nM analog concentration; read-out: % Inhibition of PFKFB3 Enzymatic Activity
T1 construct: GST
Procedure: PFKFB3 was prepared by expression in E. coli and purified by GST column and column chromatography. […] The recombinant protein was pure and active as determined by the results of a kinase activity assay commercially available (such as ADP Glow® assay, […]). The same assay was used to determine the inhibition of the protein and the results are shown in Table 5 below (IC50 values or percent inhibition at a fixed concentration). Results confirmed that the compounds of the invention have low nanomolar IC50 values, interacting with PFKFB3 and inhibiting its enzymatic activity.

Pharmacokinetics in mice = assay type: in vivo, Balbc mice
Procedure: The pharmacokinetic parameters for several compounds were determined in mice following IV (intravenous), IP (intraperitoneal), or PO (per os) administration, as well as in rats and dogs. A typical study design includes six Balbc male mice 7 to 8 weeks old. For instance, a dose of 10 mg/kg was administered IV using a 5% DMS0/90% Captisol (20% in water) solution or other pharmaceutically acceptable parenteral and oral formulations. Blood samples were collected at different intervals. Plasma samples were extracted and analyzed using an LC-MS/MS method. Similar protocols were used for the rats (Sprague Dawley rats) or dogs (beagles) PK studies; in the case of dogs PK studies, the number of animals per group was three.
PFK-065 was dosed at 10 mg/kg in male Balbc mice; PFK-095 was dosed at 10 mg/kg in male Sprague Dawley rats; and PFK-112 dosed at 6 mg/kg in male beagle dogs.

[3] = mouse, plasma, IV 10 mg/kg, male Balbc mice

T1 sequence (Q16875 whole entry, species assumed): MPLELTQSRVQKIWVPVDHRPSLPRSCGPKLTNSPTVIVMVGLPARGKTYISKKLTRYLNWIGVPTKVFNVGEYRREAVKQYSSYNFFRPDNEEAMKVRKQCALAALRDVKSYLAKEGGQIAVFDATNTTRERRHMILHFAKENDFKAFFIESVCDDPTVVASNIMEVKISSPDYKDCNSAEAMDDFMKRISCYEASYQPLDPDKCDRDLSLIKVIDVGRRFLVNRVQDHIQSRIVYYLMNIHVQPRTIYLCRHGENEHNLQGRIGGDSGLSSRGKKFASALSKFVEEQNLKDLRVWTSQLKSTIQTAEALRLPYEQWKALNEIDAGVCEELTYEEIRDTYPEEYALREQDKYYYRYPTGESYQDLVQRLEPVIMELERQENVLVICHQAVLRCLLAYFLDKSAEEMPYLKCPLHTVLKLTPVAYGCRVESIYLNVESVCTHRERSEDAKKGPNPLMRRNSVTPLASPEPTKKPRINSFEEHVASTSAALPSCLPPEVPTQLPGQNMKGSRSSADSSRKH

## O=C(c1ccccc1)c1cc2c(ccc3ccccc32)[nH]1 [ACT-PFK-065, (3H-Benzo[e]indol-2-yl)-phenyl-methanone]
U937
  IC50: 165 nM
HCT-116
  IC50: 1310 nM
NCI-H82
  IC50: 283 nM
Jurkat
  IC50: 775 nM
Calu-6
  IC50: 267 nM
MDA-MB-231
  IC50: 625 nM
[1]; 0 min
  HLM, Mean metabolized (%): 0.0%
[1]; 60 min incubation, 1.0 mg/ml microsomal protein, 1 mM NADPH, 37° C.
  HLM, Mean metabolized (%): 93%
[2]; apical to basal
  Papp A→B at 2 h: 10.3 ×10⁻⁶ cm/s
[2]; basal to apical
  Papp B→A at 2 h: 5.9 ×10⁻⁶ cm/s
PFKFB3
  inhibition at 0.25 µM: 13.5%
Pharmacokinetics in mice; IV 10 mg/kg, male Balbc mice
  T1/2b: 2.1 h
Pharmacokinetics in mice; [3]
  AUC(0-inf): 2630 ng·h/mL
  Cmax: 4110 ng/mL
  Vd: 11.2 L/kg
Pharmacokinetics in mice; oral bioavailability, Balbc mice, PO 20 mg/kg vs IV 10 mg/kg
  % F (from PO group): 25%
